Test results taken from publication PMC7727793, “Aggregation Behavior, Antibacterial Activity and Biocompatibility of Catanionic Assemblies Based on Amino Acid-Derived Surfactants” (International Journal of Molecular Sciences, 2020).

Tests used:
[1] = format: physicochemical
Method: To check whether there was a pKa shift, we titrated the surfactant at a concentration below the CMC. The titration curve is shown in Supplementary Figure S1, where 10 mL of 1.5 mM surfactant was titrated with 3 mM NaOH.
The titration was followed using a glass electrode Orion coupled with an Orion Versastar reader (Thermo Scientific). […] 16% carbonation was determined. using Equation (1), which is derived making use of the charge and mass balances together with the acid constants of H2CO3, pK1CO2 = 6.35, pK2CO2 = 10.25 and water dissociation constant pKw = 14. (1) V = −V0Ca10^pKa−pH/1+10^pKa−pH−V0Ca+V0(1/10^pH−10^pH+pKw)/cb(1−α(1−1/1+10^pH+pK1CO2+10^2pH+pK2CO2))+(1/10^pH−10^pH+pKw) where V0 is the titrated solution initial volume, L is concentration, pKa is the searched acid constant, pkw is the minus logarithm of the water dissociation constant, Cb is the titrant concentration, α is the fraction of carbonated titrant, pK1CO2 is the first dissociation constant of CO2 and pK2CO2 is the second dissociation constant of CO2.

[2] = system: erythrocytes; format: cell-based, rabbit
Method: The erythrocytes, taken from rabbit blood samples, were washed three times in PBS (pH 7.4) and resuspended in PBS at a cell density of 8 × 10^9 cells/mL. The hemolytic activity of the catanionic formulations used in this work was carried out using the procedure described by Pape et al. with minor modifications. A series of different volumes of a concentrated solution (1000 μM for the general case and 5000 μM for the 20:80 and cholesterol-containing formulations) of the catanionic formulation (10–80 μL) were placed in polystyrene tubes containing 25 μL of the prepared erythrocyte suspension and PBS buffer was added to each tube to a total volume of 1 mL. The resulted solutions were incubated at room temperature and shaken for 10 min and the tubes were then centrifuged (5 min at 10,000 rpm). The hemolysis (%) was calculated by comparing the absorbance (540 nm) of the supernatant of the solutions with that of Milli-Q water (control 100% hemolysis) and PBS buffer solution (control, 0% hemolysis).

[3] = system: Pseudomonas aeruginosa ATCC 27853; assay: Broth microdilution MIC; format: cell-based; conditions: 24 h, 37 °C, total surfactant concentration
Method: (§1) Antibacterial assays were conducted in vitro using the broth microdilution method. The minimum inhibitory concentration (MIC) is the smallest concentration of antibacterial agent at which bacterial growth is not observed. MIC values were determined for 4 Gram-positive bacteria (methicillin-resistant Staphylococcus aureus ATCC 43300 (MRSA), Bacillus subtilis ATCC 6633, Kocuria rhizophila 9341, Staphylococcus epidermidis ATCC 12228), 3 Gram-negative bacteria (Klebsiella pneumoniae ATCC 4532, Pseudomonas aeruginosa ATCC 27853, Escherichia coli ATCC 8739) and the fungal strain, Candida albicans ATCC 10231. Frozen stocks of bacteria were incubated on Muller Hinton agar plates for 24 h at 37 °C. From this culture, a bacterial suspension of 1 × 10^6 colony forming units CFU/mL was prepared in MHB (pH = 7.3). Two dilutions of pure surfactants and their binary mixtures were prepared in MH broth to obtain a final concentration ranging from 4 to 454 μM in the microtiter plates.
(§2) Then, 10 μL of nutrient broth culture of each microorganism was added to achieve a final density of ca. 5 × 10^5 CFU/mL. The cultures were incubated for 24 h at 37 °C. Every assay was repeated three times.

[4] = system: Staphylococcus epidermidis ATCC 12228; assay: Broth microdilution MIC; format: cell-based; conditions: 24 h, 37 °C, total surfactant concentration
Method: as §1, §2

[5] = system: Candida albicans ATCC 10231; assay: Broth microdilution MIC; format: cell-based; conditions: 24 h, 37 °C, total surfactant concentration
Method: as §1, §2

[6] = system: Kocuria rhizophila ATCC 9341; assay: Broth microdilution MIC; format: cell-based; conditions: 24 h, 37 °C, total surfactant concentration
Method: as §1, §2

[7] = system: Bacillus subtilis ATCC 6633; assay: Broth microdilution MIC; format: cell-based; conditions: 24 h, 37 °C, total surfactant concentration
Method: as §1, §2

[8] = SAXS, core-shell model fit; format: physicochemical
Method: SAXS was measured at the Non-Crystalline Diffraction beamline at ALBA Synchrotron NCD-SWEET, Barcelona. A sample-detector distance of 2.433 m was used with 0.10 nm wavelength coupled with a Q315r detector from ADSC. The q scale was calibrated with a silver behenate sample, and data reduction was performed with the software provided by the beamline. The intensity is shown as a function of scattering vector q expressed in nm^−1. q = (4π/λ) sin(θ/2), where θ is the scattering angle and λ is the wavelength of radiation. The spectra have been fitted to lamellar models based on Gaussian description of the bilayer electronic profile for the vesicles, as described in Haba et al.. We have kept the bilayer hydrophobic profile constant along all the samples to avoid overfitting. In these conditions, the estimated error in the position of the headgroups is 2% and 5% for the width of the Gaussian. The pure histidine derivative DMHNHC14 has been fitted to a core-shell model as described in Reference. SAXS of the pure DMHNHC14 compound was measured using an in-house instrument S3-MICRO (Hecus X-ray systems GMBH, Graz, Austria) coupled to a GENIX-Fox three-dimensional (3D) X-ray source (Xenox, Grenoble, France), as described in Reference and performing the same procedures as detailed therein.

[9] = design: method as in PMID 17319702; conditions: cited from earlier work
[10] = 10 mM NaCl CO2 saturated solution

Molecule	pKa [1]	pKa calculated from the concentration and the initial solution pH [1]	pKa shift versus literature value for the histidine secondary amine [1]	Hemolytic activity [2]	MIC [3]	MIC [4]	MIC [5]	MIC [6]	MIC [7]	Aggregation number ([8]; from SAXS core-shell fit)	Area per molecule (SAXS) ([8]; from SAXS core-shell fit)	Hydration degree per polar head ([8]; from hydrophilic shell volume and electronic density)	Hydrophilic corona thickness (core-shell model) ([8]; micelles of pure surfactant)	Hydrophobic radius (core-shell model) ([8]; micelles of pure surfactant)	Concentration at which surface tension stabilizes [9, 10]	Limiting surface tension [9, 10]	Surface tension at CMC ([9]; basic conditions)	CMC ([9]; basic media)
N(π),N(τ)-bis(methyl)-L-Histidine tetradecyl amide [DMHNHC14]	5.7-5.9	5.4	about 3.3 units	increases with the dose	227 µM	14 µM	28 µM	28 µM	28 µM	64	0.66 nm^2	about 17 water molecules	0.88 nm	1.84 nm				
CCCCCCCCCCCCCC(=O)O [Sodium myristate, sodium myristate]															around 0.3 mM	about 25 mNm^−1	about 40 mNm^−1	3 mM
